# Reference: patent publication US9920100B2, “Mimotopes of tropomyosin for use in immunotherapy for shellfish and/or arthropod allergy” (THE REGENTS OF THE UNIVERSITY OF CALIFORNIA, priority 2016, dated 2018)
# Tested on: Met e 1
# Experiment: ELISA of Met e 1-specific IgG1 and IgG2a in serum of BALB/c mice immunized with mimotope-KLH conjugates
# Type: in vivo, Metapenaeus ensis
# Details: KLH conjugate in BALB/c mice; compared with the Met e 1 epitope (a.a. 251-270) positive control
# Procedure: One mimotope peptide was chosen from each of clusters 1-6 (Table 3) and commercially synthesized (Genscript). The mimotopes were conjugated to keyhole limpet hemocyanin (KLH) using Imject EDC mcKLH Spin Kit (Thermo Scientific) according to manufacturer's instructions. Female BALB/c mice (n=4; 5-6 weeks) were immunized subcutaneously with a mimotope conjugate (50 μg in 200 μl PBS) emulsified in Complete Freund's adjuvant on day 0 and Incomplete Freund's adjuvant on days 14 and 21. Blood samples were collected on day 28 from tail vein of the mice. A Der p 1 mimotope (KGIPNTKAP) (Szalai et al., Mot Immunol, 2008; 45, 1308-1317) and an IgE epitope of Met e 1 ([…]; a.a. 251-270) were also included as negative and positive controls, respectively. All animal protocols were approved by the Animal Experimentation Ethics Committee, CUHK, in accordance with the Department of Health (Government of Hong Kong Special Administrative Region, HKSAR) guidelines in Care and Use of Animals. All experiments were performed under licenses granted from the HKSAR Government.
# ELISA was performed as previously described (Wai et al., PLoS One, 2014; 9, e111649) to detect Met e 1-specific IgG antibodies. […] 100 μl of 0.1M sulfuric acid was added to each well to stop the reaction after 10 min of incubation and the optical density at 450 nm was determined using microplate reader (BioRad Model 680). […]
sequence,measurement,value
GTKLQHFRQ (Synthetic Cluster 4 mimotope) [Cluster 4 mimotope of Met e 1; selected for in vivo verification],capacity to induce Met e 1-specific antibodies,lower capacity
